# Measurements published in ChEMBL document CHEMBL1201862, “PubChem BioAssay data set” (2004).
# The source made the active and inactive calls.
# How the values were obtained:
# [1] = target: T1, Alkaline phosphatase, tissue-nonspecific isozyme (Homo sapiens, UniProt P05186); assay: potency against alkaline phosphatase TNAP – biochemical, luminescent, dose response, SAR follow-up (AID 1056)
# T1 sequence (P05186 whole entry): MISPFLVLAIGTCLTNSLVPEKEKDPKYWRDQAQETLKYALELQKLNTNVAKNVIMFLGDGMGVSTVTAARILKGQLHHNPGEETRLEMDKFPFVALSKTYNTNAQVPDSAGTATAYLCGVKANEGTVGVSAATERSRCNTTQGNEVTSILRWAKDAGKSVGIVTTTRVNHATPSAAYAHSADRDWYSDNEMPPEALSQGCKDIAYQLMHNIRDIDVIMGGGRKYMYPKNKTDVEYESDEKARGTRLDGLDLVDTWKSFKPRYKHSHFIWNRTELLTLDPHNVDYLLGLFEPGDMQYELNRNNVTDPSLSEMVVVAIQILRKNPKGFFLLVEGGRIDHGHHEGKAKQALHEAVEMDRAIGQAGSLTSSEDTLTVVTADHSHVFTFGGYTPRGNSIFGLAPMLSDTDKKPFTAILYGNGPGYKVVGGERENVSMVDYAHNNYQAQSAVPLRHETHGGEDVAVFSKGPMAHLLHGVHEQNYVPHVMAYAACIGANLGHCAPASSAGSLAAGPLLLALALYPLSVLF
# [2] = target: Alkaline phosphatase, placental type (Homo sapiens, UniProt P05187); assay: human placental alkaline phosphatase inhibition – biochemical, luminescence, confirmation (AID 1512); assay type: functional
# Alkaline phosphatase, placental type, sequence (P05187 whole entry): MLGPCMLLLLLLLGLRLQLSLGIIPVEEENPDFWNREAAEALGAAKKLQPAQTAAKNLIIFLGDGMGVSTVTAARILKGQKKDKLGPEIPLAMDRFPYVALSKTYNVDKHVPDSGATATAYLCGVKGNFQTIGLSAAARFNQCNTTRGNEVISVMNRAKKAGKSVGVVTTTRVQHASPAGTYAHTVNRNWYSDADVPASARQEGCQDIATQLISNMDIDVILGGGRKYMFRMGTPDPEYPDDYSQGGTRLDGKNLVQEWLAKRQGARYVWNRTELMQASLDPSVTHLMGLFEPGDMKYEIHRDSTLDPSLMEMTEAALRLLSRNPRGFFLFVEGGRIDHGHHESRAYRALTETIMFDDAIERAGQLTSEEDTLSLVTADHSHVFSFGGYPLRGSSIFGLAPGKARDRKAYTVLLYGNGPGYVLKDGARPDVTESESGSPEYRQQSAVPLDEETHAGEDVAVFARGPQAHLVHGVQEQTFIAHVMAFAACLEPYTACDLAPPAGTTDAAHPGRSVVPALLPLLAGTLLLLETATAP
# CHO-K1 = assay: (§1) Counterscreen for antagonists of the orexin 1 receptor (OX1R; HCRTR1): Homogeneous time resolved fluorescence (HTRF)-based cell-based dose response assay to identify antagonists of the parental CHO-K1 cell line. [Related pubchem assays (depositor defined):AID434989, AID435008, AID463079, AID485270, AID492963, AID492964, AID492965, AID493232, AID504699, AID504701]; assay type: functional; details: Cricetulus griseus
# [3] = target: T2, Orexin/Hypocretin receptor type 1 (Homo sapiens, UniProt O43613); assay: Homogeneous Time Resolved Fluorescence (HTRF)-based cell-based high throughput dose response assay for antagonists of the orexin 1 receptor (OX1R; HCRTR1). [Related pubchem assays (depositor defined):AID434989, AID435008, AID463079, AID485270, AID492963, AID492964, AID492965, AID493232, AID504717, AID504718]; assay type: functional
# T2 sequence (O43613 whole entry): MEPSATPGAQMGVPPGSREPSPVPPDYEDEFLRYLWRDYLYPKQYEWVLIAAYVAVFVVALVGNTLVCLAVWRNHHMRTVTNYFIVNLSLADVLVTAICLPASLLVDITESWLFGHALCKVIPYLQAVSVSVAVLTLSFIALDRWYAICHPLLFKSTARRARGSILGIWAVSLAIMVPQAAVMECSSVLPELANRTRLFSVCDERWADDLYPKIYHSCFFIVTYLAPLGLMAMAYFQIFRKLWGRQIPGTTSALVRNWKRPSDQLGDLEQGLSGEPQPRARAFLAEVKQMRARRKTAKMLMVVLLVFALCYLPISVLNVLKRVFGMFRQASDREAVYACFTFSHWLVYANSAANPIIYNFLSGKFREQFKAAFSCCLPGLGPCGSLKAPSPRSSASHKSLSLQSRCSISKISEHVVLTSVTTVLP
# [4] = target: T2, Orexin/Hypocretin receptor type 1; assay: Fluorescence-based cell-based high throughput dose response assay for antagonists of the orexin 1 receptor (OX1R; HCRTR1). [Related pubchem assays (depositor defined):AID434989, AID435008, AID463079, AID485270, AID492963, AID492964, AID492965, AID493232, AID504717, AID504718]; assay type: functional
# [5] = as §1, with “Fluorescence-based” for “Homogeneous time resolved fluorescence (HTRF)-based”, “cell-based high throughput” for “cell-based”, “CHO” for “CHO-K1”; assay type: functional
# H4 = assay: Luminescence Cell-Based Dose Response HTS to Identify Activators of 5'UTR Stem-Loop Driven Prion Protein mRNA Translation in H4 Neuroglioblastoma Cells. [Related pubchem assays: 1829 (Project Summary), 1814 (Primary HTS)]; assay type: functional; details: Homo sapiens
# [6] = Counterscreen for AddAB inhibitors: absorbance-based bacterial cell-based high throughput dose response assay for inhibitors of bacterial viability. [Related pubchem assays (depositor defined):AID435030, AID449728, AID449731, AID488942, AID488955, AID488956]; assay type: functional
# [7] = Luminescence Cell-Based Dose Response HTS to Identify Activators of Luciferase Translation or Activity in H4 […] Cells. [Related pubchem assays: 1829 (Project Summary), 1814 (Primary HTS)]; assay type: functional
# [8] = system: Streptococcus sp. 'group A'; assay: Streptococcus pyogenes SK(-)GAS viability under kanamycin – luminescence, BacTiterGlo, confirmation, counter-screen for streptokinase expression inhibitor project, dose response (AID 1900); assay type: functional, organism-based
# Exodeoxyribonuclease V = Exodeoxyribonuclease V (Escherichia coli (strain K12), UniProt P04993+P07648+P08394); assay: RecBCD inhibition via phage-restricted bacterial growth – absorbance, V66 E. coli, mutant T4 phage, counter-screen for AddAB inhibitor project, dose response (AID 492957); assay type: functional, cell-based, Escherichia coli str. K-12 substr. MG1655
# Exodeoxyribonuclease V, sequence (P04993 whole entry): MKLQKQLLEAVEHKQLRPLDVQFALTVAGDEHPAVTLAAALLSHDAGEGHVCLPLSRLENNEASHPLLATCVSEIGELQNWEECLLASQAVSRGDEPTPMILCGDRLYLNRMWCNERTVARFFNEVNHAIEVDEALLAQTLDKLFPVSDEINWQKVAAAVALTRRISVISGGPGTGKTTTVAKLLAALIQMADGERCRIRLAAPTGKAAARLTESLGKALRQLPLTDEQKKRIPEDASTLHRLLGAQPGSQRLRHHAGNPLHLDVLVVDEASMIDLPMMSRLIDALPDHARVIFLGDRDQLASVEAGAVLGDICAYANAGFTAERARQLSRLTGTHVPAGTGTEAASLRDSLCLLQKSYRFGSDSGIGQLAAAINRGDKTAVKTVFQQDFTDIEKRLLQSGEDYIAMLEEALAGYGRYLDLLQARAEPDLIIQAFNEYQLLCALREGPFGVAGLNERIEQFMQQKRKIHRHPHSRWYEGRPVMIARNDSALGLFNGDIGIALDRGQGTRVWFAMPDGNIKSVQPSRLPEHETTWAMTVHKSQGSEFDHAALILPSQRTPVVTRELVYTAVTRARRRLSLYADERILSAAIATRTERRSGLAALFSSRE
# Exodeoxyribonuclease V, sequence (P07648 whole entry): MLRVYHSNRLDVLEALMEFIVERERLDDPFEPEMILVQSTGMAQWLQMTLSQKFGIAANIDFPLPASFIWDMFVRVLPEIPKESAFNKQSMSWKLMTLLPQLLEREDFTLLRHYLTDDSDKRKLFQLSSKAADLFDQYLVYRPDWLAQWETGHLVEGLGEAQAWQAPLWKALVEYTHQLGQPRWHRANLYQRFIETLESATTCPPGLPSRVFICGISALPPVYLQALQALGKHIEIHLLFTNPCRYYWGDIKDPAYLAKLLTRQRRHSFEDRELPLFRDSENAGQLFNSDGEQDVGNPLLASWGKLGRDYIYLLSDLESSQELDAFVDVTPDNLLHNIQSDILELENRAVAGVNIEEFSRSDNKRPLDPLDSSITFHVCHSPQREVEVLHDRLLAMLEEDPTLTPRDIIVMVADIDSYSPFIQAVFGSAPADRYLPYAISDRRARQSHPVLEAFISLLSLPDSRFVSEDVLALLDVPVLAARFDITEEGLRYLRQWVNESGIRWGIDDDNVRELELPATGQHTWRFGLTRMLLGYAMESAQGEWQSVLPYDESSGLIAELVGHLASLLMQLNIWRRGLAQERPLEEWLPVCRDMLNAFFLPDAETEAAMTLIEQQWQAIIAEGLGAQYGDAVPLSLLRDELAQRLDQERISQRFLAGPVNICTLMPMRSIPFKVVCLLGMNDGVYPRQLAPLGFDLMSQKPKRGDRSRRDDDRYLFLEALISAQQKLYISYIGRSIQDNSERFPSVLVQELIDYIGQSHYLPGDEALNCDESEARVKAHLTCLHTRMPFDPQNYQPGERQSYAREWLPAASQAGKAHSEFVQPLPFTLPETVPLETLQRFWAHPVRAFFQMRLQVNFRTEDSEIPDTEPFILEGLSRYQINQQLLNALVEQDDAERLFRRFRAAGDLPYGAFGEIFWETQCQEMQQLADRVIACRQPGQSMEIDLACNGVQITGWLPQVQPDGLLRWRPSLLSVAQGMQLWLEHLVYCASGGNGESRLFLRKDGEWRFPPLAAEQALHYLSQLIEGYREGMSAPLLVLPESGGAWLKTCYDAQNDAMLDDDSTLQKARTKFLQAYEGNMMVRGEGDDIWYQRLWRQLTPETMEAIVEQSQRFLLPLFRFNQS
# Exodeoxyribonuclease V, sequence (P08394 whole entry): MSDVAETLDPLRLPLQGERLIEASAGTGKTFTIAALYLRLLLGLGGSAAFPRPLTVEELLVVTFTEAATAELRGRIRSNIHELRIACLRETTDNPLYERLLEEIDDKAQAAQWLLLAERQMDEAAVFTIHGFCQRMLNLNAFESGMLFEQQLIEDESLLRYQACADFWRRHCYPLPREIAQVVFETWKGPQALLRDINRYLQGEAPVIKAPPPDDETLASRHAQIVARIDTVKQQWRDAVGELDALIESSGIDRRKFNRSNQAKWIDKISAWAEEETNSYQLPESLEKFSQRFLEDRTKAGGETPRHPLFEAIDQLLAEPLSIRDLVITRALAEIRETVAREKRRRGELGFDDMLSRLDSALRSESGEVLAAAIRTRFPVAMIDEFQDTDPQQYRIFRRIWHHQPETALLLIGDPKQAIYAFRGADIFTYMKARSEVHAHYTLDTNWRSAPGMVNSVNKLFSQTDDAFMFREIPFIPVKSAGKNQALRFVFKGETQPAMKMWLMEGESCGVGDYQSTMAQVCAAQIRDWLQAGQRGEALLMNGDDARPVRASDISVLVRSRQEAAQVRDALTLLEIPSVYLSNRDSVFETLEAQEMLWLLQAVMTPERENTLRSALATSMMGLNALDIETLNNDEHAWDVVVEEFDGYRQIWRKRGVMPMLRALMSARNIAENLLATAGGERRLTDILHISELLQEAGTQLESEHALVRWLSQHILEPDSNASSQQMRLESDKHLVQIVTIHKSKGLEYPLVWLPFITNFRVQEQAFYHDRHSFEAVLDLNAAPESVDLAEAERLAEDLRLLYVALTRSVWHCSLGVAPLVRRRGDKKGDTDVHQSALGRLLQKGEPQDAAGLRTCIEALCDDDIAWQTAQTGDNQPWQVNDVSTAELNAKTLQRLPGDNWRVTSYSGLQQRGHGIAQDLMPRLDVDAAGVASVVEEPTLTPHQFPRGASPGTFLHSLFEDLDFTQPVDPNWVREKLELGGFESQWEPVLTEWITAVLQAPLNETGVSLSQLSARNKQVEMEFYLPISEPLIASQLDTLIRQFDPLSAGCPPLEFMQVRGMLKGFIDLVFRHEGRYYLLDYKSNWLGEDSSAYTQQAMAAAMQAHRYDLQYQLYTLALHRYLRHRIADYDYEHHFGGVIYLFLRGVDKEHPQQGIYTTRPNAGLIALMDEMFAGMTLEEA
# [9] = Luminescence Cell-Based Dose Confirmation HTS to Identify Activators of 5'UTR Stem-Loop Driven Alpha-Synuclein mRNA Translation in H4 Neuroglioblastoma Cells. [Related pubchem assays: 1829 (Project Summary), 1814 (Primary HTS)]; assay type: functional
# [10] = NIH3T3 cell viability loss – ATP luminescence, mouse fibroblasts, counter-screen, dose response (AID 2010); assay type: functional, cell-based;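 further: cells exposed to compound for about 90 hours before reading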
# Streptococcus = assay: GAS UMAA2166 growth inhibition – luminescence, BacTiterGlo, counter-screen for streptokinase expression inhibitor project, dose response (AID 1915); assay type: functional, organism-based;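 further: potency for reduction of bacterial viability or growth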
# [11] = Trypanosoma cruzi growth suppression in host cells – NIH3T3 host cells, beta-gal luminescence, confirmation (AID 2044); assay type: functional, cell-based;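 further: intracellular parasites grown in NIH/3T3 mouse fibroblasts as host cells; luminescent beta-galactosidase reporter signal from transgenic T. cruzi replicating inside host cells; inhibitors lower the luminescence signal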
# [12] = microbe, parasite or virus in culture; assay type: functional; details: Mycobacterium tuberculosis
# [13] = DRD fibroblast viability loss – cell-based, non-viral oncogenic, luminescence, dose response (AID 1934); assay type: functional; details: Homo sapiens
# BJ [14] = assay: BJ-TERT fibroblast viability loss – cell-based, RAS-independent, luminescence, dose response (AID 1933); assay type: functional; details: Homo sapiens
# cells [15] = assay type: functional, cell-based
# BJ [16] = assay: cells; assay type: functional, cell-based; details: Homo sapiens
# INS1 = assay: INS-1E survival protection against cytokine death – cell-based, luminescence, retest, dose response (AID 449756); assay type: functional; details: Rattus norvegicus;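 further: cell death triggered by IL-1 beta plus TNF-alpha plus IFN-gamma mixture; protective hits raise ATP signal compared with cytokine alone wells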
# cells [17] = assay type: functional, cell-based; remark: listed apart in the source
# BJ [18] = assay: growth inhibition of engineered Ras-driven BJ cells – cell-based, alamar blue fluorescence, cherrypicked samples, dose response (AID 2631); assay type: functional; details: Homo sapiens;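 further: confirmatory dose-response assay in RAS-dependent BJ fibroblasts engineered with TERT, LT and ST, with cytotoxicity read by fluorescence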
# BJ [19] = assay: BJ-TERT-LT-ST fibroblast viability loss – cell-based, RAS-independent, luminescence, dose response (AID 1935); assay type: functional; details: Homo sapiens;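 further: BJ fibroblasts immortalized with TERT plus LT and ST oncogenes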
# [20] = target: T3, E3 ubiquitin-protein ligase XIAP (Homo sapiens, UniProt P98170); assay: Counter Screen using XIAP-Bir3 for Chemical Antagonists of Bir1/2 domains of IAP-family anti-apoptotic proteins. [Related pubchem assays (depositor defined):AID1018, AID1449, AID1514, AID1638, AID1749, AID1750, AID488957, AID488963]
# T3 sequence (P98170 whole entry): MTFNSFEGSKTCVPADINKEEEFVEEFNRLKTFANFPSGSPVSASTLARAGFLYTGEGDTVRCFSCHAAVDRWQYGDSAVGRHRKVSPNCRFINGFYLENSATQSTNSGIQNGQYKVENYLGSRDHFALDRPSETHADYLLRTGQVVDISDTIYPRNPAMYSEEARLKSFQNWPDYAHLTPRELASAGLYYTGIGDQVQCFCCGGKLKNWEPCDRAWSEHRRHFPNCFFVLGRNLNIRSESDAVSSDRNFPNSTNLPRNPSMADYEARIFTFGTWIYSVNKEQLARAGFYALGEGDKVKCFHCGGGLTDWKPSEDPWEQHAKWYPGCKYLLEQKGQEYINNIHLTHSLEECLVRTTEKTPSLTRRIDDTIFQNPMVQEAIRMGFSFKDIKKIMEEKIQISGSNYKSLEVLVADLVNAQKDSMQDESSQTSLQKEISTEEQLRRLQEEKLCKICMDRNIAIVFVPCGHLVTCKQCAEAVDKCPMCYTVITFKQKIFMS
# [21] = target: T3, E3 ubiquitin-protein ligase XIAP; assay: small molecules displacing peptide from XIAP – biochemical, IAP family, fluorescence polarization (AID 1018); assay type: functional
smiles,measurement,setting,value
C=CCn1c(SCC(=O)c2ccc(O)c(O)c2)nnc1-c1ccc(C(C)(C)C)cc1,IC50,[1],> 100 µM (inactive)
same,IC50,[2],97.5 µM (active)
COC(=O)C(C(C)=O)C1=C/C(=N\S(=O)(=O)c2ccc(C)cc2)c2ccccc2C1=O (stereo not drawn),IC50,CHO-K1,53.7 µM (inactive)
same,IC50,[3],0.414 µM (active)
same,IC50,[4],2.83 µM (active)
same,IC50,[5],> 49.8 µM (inactive)
CCOC(=O)C1=C(C)N=C2C(=C(O)c3ccccc32)C1c1ccc([N+](=O)[O-])o1 (stereo not drawn),EC50,H4,> 120 µM (not active)
same,IC50,[6],> 119 µM (inactive)
same,EC50,[7],> 120 µM (not active)
same,EC50,[8],2.81 µM (active)
same,IC50,Exodeoxyribonuclease V,> 119 µM (inactive)
same,EC50,[9],> 120 µM (not active)
same,EC50,[10],> 60 µM (not active)
same,EC50,Streptococcus,29.9 µM (active)
same,EC50,[11],1.43 µM (active)
COc1ccc(N/N=C(/N=Nc2nc(C)cc(O)n2)c2ccccc2)cc1,IC50,[6],> 119 µM (inactive)
same,CC50,[12],6.39 µM (active)
same,EC50,[13],5.72 µM (active)
same,IC50,Exodeoxyribonuclease V,> 119 µM (inactive)
same,EC50,BJ [14],4.09 µM (active)
same,EC50,cells [15],3.44 µM (active)
same,EC50,BJ [16],3.68 µM (active)
same,AC50,INS1,< 0.195 µM (active)
same,EC50,cells [17],5.67 µM (active)
same,EC50,BJ [18],0.615 µM (active)
same,EC50,BJ [19],4.21 µM (active)
Cc1ccc(C(=O)N/N=C\c2ccccc2[N+](=O)[O-])cn1,IC50,[20],> 100 µM (inactive)
same,IC50,[21],> 100 µM (not active)
